# In patent US8173131B2, “Compositions and methods for modulating RSV infection and immunity” (PerkinElmer Health Sciences, Inc., priority 2000, dated 2012):
# Like-named read-outs stand apart in the source and are kept apart here.
# Key:
# RSV = RSV plaque reduction assay on Vero cells (Example 1); type: cell-based, RSV/A2
# Protocol: Dilutions of Fkn (R&D systems), SDF-1 α (R&D systems), G glycoprotein, heparin (Sigma), G glycoprotein peptides and anti-CX3CR1 antibody were made in serum-free Dulbecco's Modified Eagle's Media (DMEM; GIBCO) containing 1% BSA (Sigma) and preincubated with the Vero cells for 1 h at 37° C. 50 μg of anti-CX3CR1 antibody or heat-inactivated (56° C., 30 min) normal rabbit sera (control) were used in all experiments. […] Dilutions of RSV were made in serum-free DMEM (GIBCO) and added to pretreated Vero cells for 2 h at 37° C. Following virus infection, DMEM (GIBCO) containing 10% FBS (Hyclone, Logan, Utah) was added to the wells. Plaques were enumerated using immunostaining for F and G glycoproteins using biotinylated monoclonal antibodies 131-2A (anti-F glycoprotein) and 130-2G (anti-G glycoprotein) as described^45.
# RSV plaque reduction following treatment with G glycoprotein, Fkn, G glycoprotein peptides, anti-CX3CR1 antibody, SDF-1-α and/or heparin as described in Methods. Percent inhibition was determined from the mean plaque forming units (pfu) of treated Vero cells over saline-treated Vero cells using a dilution of RSV that would produce 40-80 pfu. p-values were determined using unpaired two-tailed analysis where p<0.05 is significant. The concentration of G glycoprotein was estimated using a molecular weight of 90 kD.
# [1] = biological target: T1, Fkn binding to 293-CX3CR1 cells (Homo sapiens, UniProt P49238); conditions: no heparin
# T1 construct: host or cells: HEK 293 cells stably transfected with CX3CR1
# Protocol: All binding studies were done on ice and either G glycoprotein or human Fkn (R&D Diagnostics, Minneapolis, Minn.) were diluted between 1 nM-100 nM in PBS (GIBCO) containing 1% bovine serum albumin (Sigma) and incubated with the 293-CX3CR1 cells or 293 control cells for 30 min at 4° C. […] For inhibition studies, 100 pM-1 μM human Fkn or G glycoprotein was preincubated with the cells for 30 min at 4° C. Without washing, 100 pM of either Fkn or G glycoprotein was added and incubated for 30 min at 4° C. The cells were washed, blocked with FcγRIII blocking antibody (HB197) for 30 min on ice, washed and stained as appropriate with either an anti-G glycoprotein monoclonal antibody cocktail (132-5B, 132-5G, 130-2G, 232-IF) or a biotinylated anti-G glycoprotein monoclonal antibody cocktail (130-2G, 131-2G) or anti-Fkn monoclonal antibody (51637.11; R&D Diagnostics). Concentrations of 1 μg of anti-G glycoprotein monoclonal antibody (131-2G)^34, rabbit anti-CX3CR1 sera^33, and anti-CX3CR1 monoclonal antibody containing 10 μg/ml heparin were used in all experiments. […] Staining was detected with absorbed FITC-goat anti-mouse (H & L chain) monoclonal antibody (PharMingen, San Diego, Calif.) or streptavidin-PE (PharMingen) using flow cytometry (FACScan, Becton-Dickinson, Mountain View, Calif.). A 76 amino acid ^125I-Fkn polypeptide comprising the […] (NEN, Boston, Mass.) was used in radioligand studies^33. As a control, the void volume following purified G glycoprotein passaged over an anti-G glycoprotein antibody (130-2G) affinity column was examined by flow cytometry for binding to either 293 or 293-CX3CR1 cells.
# (§1) For peptide inhibition studies, a series of G glycoprotein peptides were identified in the amino acid sequence of the A2 strain of RSV (GENBANK, attachment protein locus 1912305, Table 4). The peptides were synthesized using a simultaneous, multiple solid-phase peptide synthesis method on a peptide synthesizer (Perkin-Elmer Applied Biosystems, Berkeley, Calif.), and tested for homogeneity by reverse-phase liquid chromatography and capillary electrophoresis (www.biotech.cdc.gov/protein/methods). Inhibition assays were performed as described for the binding studies above.
# (§2) To determine if G glycoprotein bound 293-CX3CR1 cells via CX3CR1, the ability of four reagents (anti-CX3CR1 rabbit antiserum, anti-CX3CR1 monoclonal antibody (2A9-1), Fkn and a 76 amino acid 125-I-Fkn polypeptide containing the CX3C domain) that bind to CX3CR1 to block G glycoprotein binding to 293-CX3CR1 cells was examined. In addition, to determine if binding of G glycoprotein to 293-CX3CR1 cells was dependent upon the CX3C motif, G glycoprotein peptides with a single residue insertion (Δ+1) or deletion (Δ−1) in the CX3C motif and also peptides that lacked or included the CX3C motif (Table 4) were generated. This panel of peptides was analyzed for their ability to block G glycoprotein or Fkn binding to 293-CX3CR1 cells.
# (§3) Inhibition of Fkn and G glycoprotein binding to 293-CX3CR1 cells by treatment with monoclonal antibodies to G glycoprotein or CX3CR1, or treatment with G glycoprotein, Fkn, or G glycoprotein peptides in the presence or absence of heparin as described in Methods. […] The concentration of G glycoprotein was estimated using a molecular weight of 90 kD.
# [2] = system: G glycoprotein binding to 293-CX3CR1 cells; parameters: species or system human; conditions: for percent staining of G glycoprotein on CX3CR1-293 cells in the presence of peptide: 10 nM G glycoprotein, 84% without peptide, FIG. 1
# Protocol: All binding studies were done on ice and either G glycoprotein or human Fkn (R&D Diagnostics, Minneapolis, Minn.) were diluted between 1 nM-100 nM in PBS (GIBCO) containing 1% bovine serum albumin (Sigma) and incubated with the 293-CX3CR1 cells or 293 control cells for 30 min at 4° C. […] Without washing, 100 pM of either Fkn or G glycoprotein was added and incubated for 30 min at 4° C. The cells were washed, blocked with FcγRIII blocking antibody (HB197) for 30 min on ice, washed and stained as appropriate with either an anti-G glycoprotein monoclonal antibody cocktail (132-5B, 132-5G, 130-2G, 232-IF) or a biotinylated anti-G glycoprotein monoclonal antibody cocktail (130-2G, 131-2G) or anti-Fkn monoclonal antibody (51637.11; R&D Diagnostics). Concentrations of 1 μg of anti-G glycoprotein monoclonal antibody (131-2G)^34, rabbit anti-CX3CR1 sera^33, and anti-CX3CR1 monoclonal antibody containing 10 μg/ml heparin were used in all experiments. […] Staining was detected with absorbed FITC-goat anti-mouse (H & L chain) monoclonal antibody (PharMingen, San Diego, Calif.) or streptavidin-PE (PharMingen) using flow cytometry (FACScan, Becton-Dickinson, Mountain View, Calif.). A 76 amino acid ^125I-Fkn polypeptide comprising the […] (NEN, Boston, Mass.) was used in radioligand studies^33. As a control, the void volume following purified G glycoprotein passaged over an anti-G glycoprotein antibody (130-2G) affinity column was examined by flow cytometry for binding to either 293 or 293-CX3CR1 cells.
# as §1, §2, §3
# T1 sequence (P49238 whole entry): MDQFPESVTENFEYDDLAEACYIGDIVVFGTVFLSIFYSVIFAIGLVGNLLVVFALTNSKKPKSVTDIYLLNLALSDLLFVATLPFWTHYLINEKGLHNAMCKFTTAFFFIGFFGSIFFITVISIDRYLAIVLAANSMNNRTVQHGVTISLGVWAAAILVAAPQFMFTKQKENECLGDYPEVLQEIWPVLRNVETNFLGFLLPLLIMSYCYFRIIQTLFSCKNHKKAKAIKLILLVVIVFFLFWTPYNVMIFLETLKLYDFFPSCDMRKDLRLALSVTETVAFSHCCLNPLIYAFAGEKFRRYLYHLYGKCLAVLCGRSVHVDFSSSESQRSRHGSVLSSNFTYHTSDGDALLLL
molecule,measurement,setting,value
TCWAIACKRIPNK [Δ + 1],plaque inhibition (%),RSV; 1 μM,30%
same,Range of Inhibition (%) of Fkn binding,[1]; inhibitor 1 μM,0-8%
same,percent staining of G glycoprotein on CX3CR1-293 cells in the presence of peptide,[2],65%
same,Range of Inhibition (%) of G glycoprotein binding,"[2]; inhibitor 1 μM, no heparin",16-22%
TCWACKRIPNK (TCWAIACKRIPNK) [Δ − 1],plaque inhibition (%),RSV; 1 μM,0%
same,Range of Inhibition (%) of Fkn binding,[1]; inhibitor 1 μM,0-4%
same,percent staining of G glycoprotein on CX3CR1-293 cells in the presence of peptide,[2],73%
same,Range of Inhibition (%) of G glycoprotein binding,"[2]; inhibitor 1 μM, no heparin",8-12%
"Fkn: CX3C chemokine fractalkine (R&D), ligand of CX3CR1 [reference compound]",plaque inhibition (%),RSV; 100 pM,0%
same,plaque inhibition (%),RSV; 1 nM,31%
same,plaque inhibition (%),RSV; 10 nM,80%
same,plaque inhibition (%),RSV; heparin 5 μg/ml + Fkn 10 nM,97%
same,Range of Inhibition (%) of G glycoprotein binding,[2]; heparin 5 μg/ml + Fractalkine 10 nM,85-98%
same,Range of Inhibition (%) of G glycoprotein binding,"[2]; inhibitor 100 pM, no heparin",2-5%
same,Range of Inhibition (%) of G glycoprotein binding,"[2]; inhibitor 10 nM, no heparin",8-15%
same,Range of Inhibition (%) of G glycoprotein binding,"[2]; inhibitor 1 μM, no heparin",20-34%
TCWAICKRIPNK [RT33],plaque inhibition (%),RSV; 1 μM,71%
same,plaque reduction by peptide alone,RSV; concentration not stated,16%
same,plaque inhibition (%),RSV; heparin 5 μg/ml + peptide 1 μM,92%
same,Range of Inhibition (%) of Fkn binding,[1]; inhibitor 1 μM,18-27%
same,Range of Inhibition (%) of G glycoprotein binding,[2]; heparin 5 μg/ml + peptide 1 μM,85-94%
same,Range of Inhibition (%) of G glycoprotein binding,"[2]; inhibitor 1 μM, no heparin",35-42%
VPCSICSNNPTC [RT32],plaque inhibition (%),RSV; 1 μM,2%
same,Range of Inhibition (%) of Fkn binding,[1]; inhibitor 1 μM,6-12%
same,Range of Inhibition (%) of G glycoprotein binding,"[2]; inhibitor 1 μM, no heparin",8-14%
NKKPGKKTTTKP [RT34],plaque inhibition (%),RSV; 1 μM,6%
same,Range of Inhibition (%) of Fkn binding,[1]; inhibitor 1 μM,6-14%
same,Range of Inhibition (%) of G glycoprotein binding,"[2]; inhibitor 1 μM, no heparin",4-18%
G glycoprotein: purified G glycoprotein isolated from RSV/A2-infected Vero cells (protein) MSKNKDQRTAKTLERTWDTLNHLLFISSCLYKLNLKSVAQITLSILAMIISTSLIIAAIIFIASANHKVTPTTAIIQDATSQIKNTTPTYLTQNPQLGISPSNPSEITSQITTILASTTPGVKSTLQSTTVKTKNTTTTQTQPSKPTTKQRQNKPPSKPNNDFHFEVFNFVPCSICSNNPTCWAICKRIPNKKPGKKTTTKPTKKPTLKTTKKDPKPQTTKSKEVPTTKPTEEPTINTTKTNIITTLLTSNTTGNPELTSQMETFHSTSSEGNPSPSQVSTTSEYPSQPSSPPNTPRQ,plaque inhibition (%),RSV; 1 nM,0%
same,plaque inhibition (%),RSV; 10 nM,49%
same,plaque inhibition (%),RSV; 100 nM,61%
same,plaque inhibition (%),RSV; heparin 5 μg/ml + G glycoprotein 100 nM,98%
same,Range of Inhibition (%) of Fkn binding,[1]; inhibitor 100 pM,5-8%
same,Range of Inhibition (%) of Fkn binding,[1]; inhibitor 10 nM,32-38%
same,Range of Inhibition (%) of Fkn binding,[1]; inhibitor 1 μM,50-58%
